For the experiment, the target named is T1, human mGlu 5a receptor (Homo sapiens, UniProt P41594).
T1 construct: expressed in transfected cells; host or cells: EBNA cells (transient transfection); cell membrane homogenates
Description: [3H]MPEP competition binding on membranes of EBNA cells transiently transfected with human mGlu 5a receptor. The protocol: Cell membrane homogenates were stored at −80° C. until the day of assay where upon they were thawed and resuspended and polytronised in 15 mM Tris-HCl, 120 mM NaCl, 100 mM KCl, 25 mM CaCl2, 25 mM MgCl2 binding buffer at pH 7.4 to a final assay concentration of 20 μg protein/well.
Competition experiments were performed with a fixed concentration of [^3H]MPEP (2 nM) and IC50 values of test compounds evaluated using 11 concentrations (0.3-10,000 nM).
Nonspecific binding was measured in the presence of 10 μM MPEP. The radioactivity on the filter was counted (3 min) on a Packard Top-count microplate scintillation counter with quenching correction after addition of 45 μl of microscint 40 (Canberra Packard S.A., Zürich, Switzerland) and shaking for 20 min.
The Ki value is defined by the following formula: Ki=IC50/[1+L/Kd] in which the IC50 values are those concentrations of the compounds tested which cause 50% inhibition of the competing radioligand ([^3H]MPEP). L is the concentration of radioligand used in the binding experiment and the Kd value of the radioligand is empirically determined for each batch of membranes prepared.

Setting [1] is: competition with [3H]MPEP (2 nM), 1 h at 4° C., pH 7.4, Ki=IC50/[1+L/Kd].

Read-outs that look alike come from different tables or passages of the source.

T1 sequence (P41594 21-1180 isoform P41594-2 limits assumed): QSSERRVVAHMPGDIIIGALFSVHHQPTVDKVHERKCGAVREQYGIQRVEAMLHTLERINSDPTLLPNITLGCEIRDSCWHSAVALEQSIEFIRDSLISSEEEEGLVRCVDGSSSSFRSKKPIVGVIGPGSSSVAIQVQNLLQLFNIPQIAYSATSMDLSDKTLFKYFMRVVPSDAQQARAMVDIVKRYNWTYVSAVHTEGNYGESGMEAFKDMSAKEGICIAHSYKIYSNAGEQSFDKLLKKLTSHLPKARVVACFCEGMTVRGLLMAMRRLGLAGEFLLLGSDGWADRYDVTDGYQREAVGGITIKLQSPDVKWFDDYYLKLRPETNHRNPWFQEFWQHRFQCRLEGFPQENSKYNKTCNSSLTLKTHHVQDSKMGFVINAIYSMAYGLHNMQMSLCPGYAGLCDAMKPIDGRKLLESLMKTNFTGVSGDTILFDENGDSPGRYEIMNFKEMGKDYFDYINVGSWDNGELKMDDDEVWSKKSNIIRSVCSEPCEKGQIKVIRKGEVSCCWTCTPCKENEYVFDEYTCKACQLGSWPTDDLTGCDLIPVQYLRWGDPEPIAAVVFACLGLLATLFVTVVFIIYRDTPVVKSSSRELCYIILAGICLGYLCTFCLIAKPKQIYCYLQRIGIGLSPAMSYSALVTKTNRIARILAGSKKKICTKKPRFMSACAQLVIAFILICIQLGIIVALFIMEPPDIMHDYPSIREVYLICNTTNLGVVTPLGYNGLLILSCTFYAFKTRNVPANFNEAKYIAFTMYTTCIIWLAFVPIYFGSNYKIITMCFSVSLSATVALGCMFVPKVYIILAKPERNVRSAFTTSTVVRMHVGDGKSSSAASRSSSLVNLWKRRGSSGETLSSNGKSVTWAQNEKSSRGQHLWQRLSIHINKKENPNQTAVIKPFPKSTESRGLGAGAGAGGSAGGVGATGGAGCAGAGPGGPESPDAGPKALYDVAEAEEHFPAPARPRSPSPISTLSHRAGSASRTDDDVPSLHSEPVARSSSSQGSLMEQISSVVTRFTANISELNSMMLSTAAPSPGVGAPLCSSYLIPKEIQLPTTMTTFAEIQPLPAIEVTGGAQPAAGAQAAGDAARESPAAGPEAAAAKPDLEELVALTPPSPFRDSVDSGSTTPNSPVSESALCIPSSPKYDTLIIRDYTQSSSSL

Take `Cc1c(C#Cc2ccnc(Cl)c2)nn(C)c1-c1ccc(F)cc1` [Example 26, 2-Chloro-4-[5-(4-fluoro-phenyl)-1,4-dimethyl-1H-pyrazol-3-ylethynyl]-pyridine]: the Ki under setting [1] turned out to be 0.006 µM.
On to `Cc1nc(C#Cc2ccnc(Cl)c2)c(C)n1-c1ccc(C(F)(F)F)cc1` [Example 13, 2-Chloro-4-[2,5-dimethyl-1-(4-trifluoromethyl-phenyl)-1H-imidazol-4-ylethynyl]-pyridine], for which the Ki came to 0.014 µM.
`Cc1nc(C#Cc2ccnc(Cl)c2)c(C(F)F)n1-c1ccc(F)cc1` [Example 27, 2-Chloro-4-[5-difluoromethyl-1-(4-fluoro-phenyl)-2-methyl-1H-imidazol-4-ylethynyl]-pyridine]: the Ki under setting [1] is 0.042 µM.

For orientation: Ki means the equilibrium dissociation constant of an inhibitor or competing ligand from its target.

The values above are taken from patent US8293916B2, “Diazole derivatives” (Hoffmann-La Roche Inc., priority 2004, dated 2012).
